Test system: AP CML, BP CML and Ph+ ALL
Assay: Part B: disease response in AP CML, BP CML and Ph+ ALL subjects
Assay type: in vivo, human
Text: This was a Phase I/2, open-label, single-agent, multicenter, multi-dose, dose-escalation study in subjects with Philadelphia chromosome-positive Ph+ CML (CP CML, AP CML and BP CML) and Ph+ ALL. The primary objectives of this study were to determine the maximum tolerated dose (MTD; or recommended Phase 2 dose [RP2D]) of the compound of Formula I when administered orally and to evaluate its safety.
In this study, the dose-escalation cohort started with an accelerated titration study design (ATD) and shifted to a 3±3 design when subjects in the preceding ATD cohort experienced either grade 2 or higher adverse events (AEs) or dose-limiting toxicity (DLT) during Cycle 1 that was not clearly and incontrovertibly related to the underlying disease or concomitant medications. The DLT period consisted of 28 days (Cycle 1). Subjects experiencing DLTs were managed with dose delays and/or discontinuation and continued in the study until disease progression. Decisions to advance to a succeeding dose level occurred after the evaluation of safety and tolerability data for a given dose level.
Accordingly, the eligible subjects were treated in 4-week cycles of once daily self-administration of the compound of Formula I. The administration was after an overnight fast, or after maintaining approximately 2 hours of fasting before and after the dosing in all cycles.
For the cohorts, where the 3±3 design applies, 3 subjects were enrolled initially. If 2 of these subjects experienced a Grade 2 or more toxicity (that was not clearly and incontrovertibly related to the underlying disease or concomitant medications), subsequent cohorts were escalated according to smaller increments. Further, if there were no DLTs in the first 3 subjects, dose escalation to the next higher dose level was allowed to proceed. If 1 of the 3 subjects experienced a DLT, that dose level was expanded to 6 subjects (3 additional subjects were enrolled). If 2 subjects at a given dose level experienced a DLT, the MTD was considered to have been exceeded. The next lower dose level was expanded to 6 subjects, or if 6 subjects had already been enrolled and no more than 1 of the 6 subjects experienced a DLT, then this lower dose level was considered the MTD. Additional subjects were enrolled in dose escalation cohorts for further assessment of safety and efficacy of the compound of Formula 1 at doses that were tolerated (i.e., doses that have <2 DLTs in 6 enrolled subjects or <1 DLT in 3 enrolled subjects). Thus 204 mg was arrived at as MTD. A subject experiencing a DLT was allowed to continue therapy with a reduced dose. Subjects who experienced a DLT and recovered were treated at the next lower dose level until disease progression or other events requiring further dose reduction existed. For cohorts at Dose Level 2 or higher, a further dose reduction (i.e., up to 2 levels lower than their originally assigned dose) was implemented in the case of a further DLT or other non-DLT events requiring a dose reduction, if and when the event leading to dose reduction returned to Grade 1 or lower in severity. The reduced dose was re-escalated to the original or higher dose (i.e., the dose for which safety had been established in the dose escalation cohort) considering subject safety and response to the compound of Formula I. The subject was discontinued from treatment using the compound of Formula I, if dose reduction below 48 mg was required.
The study was conducted over a period of 60 months (5 years) which was divided in 28-days cycle. In the first two cycles, the dose administration was started on day 1 and the subject's assessments were performed on day 1, day 2, day 3, day 8, day 15 and day 22. From Cycle 3 onwards, the assessments were performed every 3 months (i.e., on day 28 of Cycle 3, followed by day 28 of Cycle 6 which was further followed by day 28 of Cycle 9). […]

## Cc1ccc(C(=O)NNC(=O)c2c(C)cccc2Cl)cc1C#Cc1cnc2ccccc2c1 [compound of Formula I, N′-(2-chloro-6-methylbenzoyl)-4-methyl-3-[2-(3-quinolyl)ethynyl]-benzohydrazide]
24 mg (N = 1) ESC
  Best Cytogenetic Response: Complete Response: 1(100)
  Best Cytogenetic Response: Major Cytogenetic Response: 1(100)
  Best Cytogenetic Response: Minimal Response: 0
  Best Cytogenetic Response: Minor Response: 0
  Best Cytogenetic Response: No Response: 0
  Best Cytogenetic Response: Partial Response: 0
  Best Hematologic Response: Complete Response: 1(100)
  Best Hematologic Response: Major Hematologic Response: 1(100)
  Best Hematologic Response: No Evidence of Leukemia: 0
  Best Hematologic Response: No Response: 0
  Best Molecular Response: Complete Response: 0
  Best Molecular Response: Major Response: 1(100)
  Best Molecular Response: No Response: 0
48 mg (N = 3) ESC
  Best Cytogenetic Response: Complete Response: 2(66.7)
  Best Cytogenetic Response: Major Cytogenetic Response: 2(66.7)
  Best Cytogenetic Response: Minimal Response: 0
  Best Cytogenetic Response: Minor Response: 0
  Best Cytogenetic Response: No Response: 1(33.3)
  Best Cytogenetic Response: Partial Response: 0
  Best Hematologic Response: Complete Response: 3(100)
  Best Hematologic Response: Major Hematologic Response: 3(100)
  Best Hematologic Response: No Evidence of Leukemia: 0
  Best Hematologic Response: No Response: 0
  Best Molecular Response: Complete Response: 1(33.3)
  Best Molecular Response: Major Response: 1(33.3)
  Best Molecular Response: No Response: 2(66.7)
90 mg (N = 1) ESC
  Best Cytogenetic Response: Complete Response: 1(100)
  Best Cytogenetic Response: Major Cytogenetic Response: 1(100)
  Best Cytogenetic Response: Minimal Response: 0
  Best Cytogenetic Response: Minor Response: 0
  Best Cytogenetic Response: No Response: 0
  Best Cytogenetic Response: Partial Response: 0
  Best Hematologic Response: Complete Response: 1(100)
  Best Hematologic Response: Major Hematologic Response: 1(100)
  Best Hematologic Response: No Evidence of Leukemia: 0
  Best Hematologic Response: No Response: 0
  Best Molecular Response: Complete Response: 1(100)
  Best Molecular Response: Major Response: 1(100)
  Best Molecular Response: No Response: 0
126 mg (N = 3) ESC
  Best Cytogenetic Response: Complete Response: 0
  Best Cytogenetic Response: Major Cytogenetic Response: 0
  Best Cytogenetic Response: Minimal Response: 0
  Best Cytogenetic Response: Minor Response: 1(33.3)
  Best Cytogenetic Response: No Response: 1(33.3)
  Best Cytogenetic Response: Partial Response: 0
  Best Hematologic Response: Complete Response: 0
  Best Hematologic Response: Major Hematologic Response: 0
  Best Hematologic Response: No Evidence of Leukemia: 0
  Best Hematologic Response: No Response: 1(33.3)
  Best Molecular Response: Complete Response: 0
  Best Molecular Response: Major Response: 0
  Best Molecular Response: No Response: 2(66.7)
2 Ph+ ALL pts
  maintained CCyR and MMR: 1 pt
3 AP CML patients
  CCyR with MMR: 1 patient
  PCyR: 2 patients
4 BP CML patients
  complete hematological response (CHR): 2 patients
  disease progression as best response: 2 patients
66 ang (N = 3) ESC
  Best Cytogenetic Response: Complete Response: 2(66.7)
  Best Cytogenetic Response: Minor Response: 0
  Best Cytogenetic Response: No Response: 0
  Best Hematologic Response: Complete Response: 0
  Best Hematologic Response: Major Hematologic Response: 2(66.7)
  Best Hematologic Response: No Response: 1(33.3)
  Best Molecular Response: Major Response: 1(33.3)
  Best Molecular Response: No Response: 2(66.7)
(N = 3) ESC
  Best Cytogenetic Response: Major Cytogenetic Response: 3(100)
  Best Cytogenetic Response: Minimal Response: 0
  Best Cytogenetic Response: Partial Response: 1(33.3)
  Best Hematologic Response: No Evidence of Leukemia: 2(66.7)
  Best Molecular Response: Complete Response: 1(33.3)
Total ESC
  Best Cytogenetic Response: Complete Response: 6(54.5)
  Best Cytogenetic Response: Major Cytogenetic Response: 7(63.6)
  Best Cytogenetic Response: Minimal Response: 0
  Best Cytogenetic Response: Minor Response: 1(9.1)
  Best Cytogenetic Response: No Response: 2(18.2)
  Best Cytogenetic Response: Partial Response: 1(9.1)
  Best Hematologic Response: Complete Response: 5(45.5)
  Best Hematologic Response: Major Hematologic Response: 7(63.6)
  Best Hematologic Response: No Evidence of Leukemia: 2(18.2)
  Best Hematologic Response: No Response: 2(18.2)
  Best Molecular Response: Complete Response: 3(27.3)
  Best Molecular Response: Major Response: 4(36.4)
  Best Molecular Response: No Response: 6(54.5)
